Laboratory results: patent US20090137390A1, “Materials and methods for enhancing nitrogen fixation in plants” (priority 2004, published 2009)
“Also recorded” adds a separate entry of the source.

Assays:
[1] = tested on: Medicago sativa roots and hypocotyls; test: Endophytic colonization of alfalfa seedlings (CFU recovered from interior of roots and hypocotyls); type: in vivo
Text: (§1) Bacterial strains and inoculum preparation. BA3104 was constructed by sequential P22 transduction into 14028 using a P22HTint lysate grown on the SL3201 fliC::Tn10 fliB::MudJ strain kindly provided by Dr. Allison O'Brien (Schmitt et al., 2001). pHC112 was constructed by amplifying the spaS gene of 14028 (nucleotides 28 to 1327 of GenBank accession number AE008832) using Taq DNA polymerase. The spaS fragment was cloned into pCR-2.1-TOPO (Invitrogen), removed using EcoRI, and cloned into the EcoRI site of pWSK29 (Wang and Kushner 1991). pHC113 was constructed in the same way except that the sipB gene was amplified (nucleotides 18133 to 20138 of GenBank accession number AE008831). Bacterial strains were cultured and inoculum prepared as described previously (Dong et al., 2003a; Dong et al., 2003b) with the exception of the experiments designed to estimate the number of infection events. For these experiments the inoculum strains were composed of a mixture of either 14028 or Kp342 with and without a constitutively expressed GFP gene.
(§2) Seed surface sterilization, germination, inoculation, plant culture and harvest. The manipulation of plants, from seed surface sterilization to plant harvest, were carried out by methods developed previously (Dong et al., 2003a; Dong et al., 2003b).
(§3) Determination of microbial population within surface sterilized plant tissue. With the exception of the M. truncatula sickle experiment, where the whole plant tissue was used to determine microbial populations, only the root and hypocotyl were examined for bacterial colonization. The procedures used for surface sterilization, determination of endophytic microbial populations and statistical analysis were done as described previously (Dong et al., 2003a; Dong et al., 2003b).
(§4) Assurance of endophytic colonization results. To ensure the endophytic colonization numbers presented reflect only the number of cells within the interior of plant tissue, previously developed methods were followed (Dong et al., 2003a; Dong et al., 2003b).
Induction of ethylene response in seedlings. […]

[2] = tested on: Medicago truncatula roots and hypocotyls; test: Endophytic colonization of Medicago truncatula seedlings (CFU recovered from interior); type: in vivo
Text: as §1, §2, §3, §4
Induction of ethylene response in seedlings. To induce ethylene responses, seedlings were cultured in growth medium as described previously (Dong et al., 2003a) supplemented with 5 μM 1-aminocyclopropane-1-carboxylic acid (ACC). ACC was dissolved in water and filter sterilized prior to its addition to autoclaved plant growth media. In most experiments, seedlings were exposed to media containing ACC for 12 hours prior to inoculation.
Preparation and use of 1-methylcyclopropene (1-MCP). The gaseous ethylene action inhibitor, 1-MCP, was prepared and stored as described by Hall et al. (2000). 1-MCP was generated from ETHYLBLOC, which was provided by A. B. Bleecker (University of Wisconsin—Madison). The concentration of 1-MCP in ETHYLBLOC is of 0.14%. A stock of 1-MCP of 100 ppm was created in a serum bottle of 121.5 ml in volume. This was accomplished by adding 19.44 mg of ETHYLBLOC and 0.5 ml of hot H2O to the serum bottle and set to rest for 15 minutes. The stock was used to dispense 0.3 ml of headspace gas to 30 ml stopped test tubes where the plants were cultured, resulting in a final concentration of 1 ppm per tube. The plant cultures were placed under conditions as described previously (Dong et al., 2003a; Dong et al., 2003b) with the exception of a rubber stopper used to conceal 1-MCP. The stoppers were removed daily, flushed with air, stopped again and finally freshly prepared 1-MCP was added to the desired final concentration.

Triticum aestivum roots = test: Endophytic colonization of wheat seedlings (CFU recovered from interior of roots and hypocotyls); type: in vivo; conditions: varying amounts of ACC
Text: as §1, §2
Determination of microbial population within surface sterilized plant tissue. […]

PR1::GUS = test: GUS histochemical staining and GUS fluorogenic assay in PR1::GUS plants; type: in vivo, Arabidopsis thaliana; conditions: histochemical staining and fluorogenic assays
Procedure: GUS histochemical staining and GUS fluorogenic assay. Roots of transgenic Arabidopsis thaliana Col-0 harboring a pathogenesis-related 1 (PR1) gene promoter fused to the bacterial uidA (β-glucuronidase) reporter gene (PR1::GUS) were inoculated with 10^7 CFU S. enterica 14028, the 14028 sipB mutant, and the complemented sipB mutant,. Exogenous application of salicylic acid (5 mM) and infiltration of leaves with 10^7 CFU of an avirulent strain of P. syringae DC3000 carrying the avrRpt2 on plasmid PV288 were used as positive controls (Kunkel et al., 1993; Ton et al., 2002). The histochemical assay was performed as described by Sundaresan et al. (1995) with slight modifications (Sundaresan et al., 1995). Plants were immersed in staining buffer (50 mM sodium phosphate pH7, 10 mM EDTA, 0.1% Triton X-100, 100 μg/ml chloramphenicol, 5 mM potassium ferricyanide and 0.5 mg/ml 5-bromo-4-chloro-3-indolyl-β-D-glucuronide (X-Glc). Plants were then vacuum infiltrated, incubated overnight at 37° C., and destained with 70% ethanol.
To conduct the quantitative GUS fluorogenic assay, whole plants were flash-frozen in liquid N2 and crushed. The fluorogenic assay and protein extraction were done as described by (Jefferson et al, 1987). Protein concentration of the samples was determined using a BCA protein assay kit (PIERCE, Rockford, Ill.).

Q: Which results are given for `CC1=CC1` [1-MCP, 1-methylcyclopropene]?
A: Effect on the ACC-induced reduction in endophytic colonization of alfalfa ([1]; 1 ppm 1-MCP, 5 μM ACC): reversed the reduction in endophytic colonization of alfalfa observed with ACC; Endophytic colonization upon treatment ([2]; 1 ppm 1-MCP, regardless of presence or absence of exogenous ACC, Kp342): significantly higher endophytic colonization

Q: For `NC1(C(=O)O)CC1` [ACC, 1-aminocyclopropane-1-carboxylic acid], which “Reduction of endophytic colonization” value ([1]; colonization by S. typhimurium 14028, wild-type M. sativa, ACC in growth media (5 μM)) is on record?
A: four

Q: And the “Decrease of endophytic colonization” value ([1]; wild-type strain (14028), FIG. 6)?
A: over two orders of magnitude

Q: And the “Decline in number of cells within wheat roots” value (Triticum aestivum roots; 14028 cells)?
A: 1.2 orders of magnitude

Q: What about the “Decline in number of cells within wheat roots” value (Triticum aestivum roots; Kp342 cells) of the same compound?
A: 1.85 orders of magnitude

Q: And the “Number of Kp342 cells within roots over time with ACC treatment” value ([2]; 5 μM ACC at inoculation, 10^2 cells of Kp342 per plant, days 0-6)?
A: statistically different from the controls on days 4, 5, and 6; also recorded: does not change significantly with ACC treatment until four days after inoculation

Q: For `C=C` [ethylene], which “Endophytic colonization in plants exposed to C2H4 or ACC for the same time period” value ([2]; 5 μM, Kp342) is on record?
A: No difference in endophytic colonization

Q: And the “Time of application needed for maximal inhibition of endophytic colonization” value ([2]; C2H4 5 μM applied from one day prior to up to 6 days after inoculation)?
A: prior to, or at the time of inoculation

Q: What about the “Time after exposure at which effects on endophytic colonization become significant” value ([2]; Kp342) of the same compound?
A: 96 h

Q: How did the “PR1::GUS induction / expression” value (PR1::GUS) turn out when `O=C(O)c1ccccc1O` [salicylic acid] was run?
A: strongly induced
